Data on nine molecules can be found in patent US20200061026A1, “METHODS AND COMPOSITIONS FOR PREVENTING VECTOR-BORNE DISEASE TRANSMISSION” (The Scripps Research Institute, priority 2016, published 2020).

Usually half-life stands for how long it takes for the measured level to halve. A low value points to fast loss. Usually hepatocyte CLint stands for the rate of metabolic loss divided by the concentration. Read a high hepatocyte CLint as rapid turnover.

The nature of data set [1]: in vitro. The settings on record: hepatocytes. On the procedure:
(§1) In a further assay, isoxazolines (fluralaner and afoxolaner) and control compounds (7-Ethoxycoumarin and 7-Hydroxycoumarin [Sigma]) were dissolved in DMSO at 10 and 30 mM respectively, then diluted first 20-fold with 45% methanol in water and a further 10-fold in pre-warmed Williams' Medium E. Cryopreserved human, dog and rat hepatocytes (In Vitro Technologies) were thawed, isolated by percoll gradient and suspended in Williams' Medium E. Cells were then dispensed into the wells of 96-well plates containing 10 μL of diluted compounds, to reach a final concentration of 0.5×10^6 cells/mL and 1 μM of isoxazolines or 3 μM of control. After an incubation at 37° C. of 0, 15, 30, 60 or 90 minutes, the reaction was stopped with acetonitrile. The samples were then shaken for 10 minutes at 500 rpm and centrifuged at 3220 g for 20 minutes. Supernatants were transferred and stored at 4° C. until LC-MS-MS analysis.

A short description of data set [2]: in vitro. The settings on record: human, hepatocytes. On the procedure: as §1
Data set [3] in a line: in vitro. As to conditions: hepatocytes. Here is the method: as §1
The source holds these as a separate data set.

Another data set concerns Anopheles gambiae Kisumu. The data set can be described thus: WHO paper contact assay, Anopheles gambiae Kisumu. The format is in vivo. The settings on record: papers 0.75% permethrin, 0.05% deltamethrin, 4% DDT, 0.1% bendiocarb, 1.0% fenitrothion, 4% dieldrin. Here is the method: (§2) Mosquito colonies utilized in the examples were generally maintained as described: The colony of Anopheles stephensi (Sind-Kasur Nijmegen strain) was maintained at the Radboud University Medical Center, Nijmegen, The Netherlands, by 30° C. and 70-80% humidity and on a 12/12 hour day/night cycle. The Anopheles gambiae strains Kisumu and Tiassalé and the Aedes aegypti strains New Orleans and Cayman were reared at the Liverpool Insect Testing Establishment, Liverpool, UK. Kisumu is an insecticide susceptible lab strain. New Orleans was originally colonized by the Centers for Disease Control and Prevention. The Tiassalé strain was colonized from Southern Cote D'Ivoire where resistance to all classes of insecticide is found and the Cayman strain was colonized from Grand Cayman, where Aedes aegypti are highly resistant to DDT and pyrethroid insecticides. Both resistant strains are routinely selected with insecticides to ensure the maintenance of resistance, 0.75% permethrin for Cayman and 0.05% deltamethrin for Tiassalé, and profiled for resistance to a range of insecticides, including 4% dieldrin, to which Tiassalé is resistant but Cayman is susceptible.
(§3) Without being bound by theory, isoxazolines occupy a binding site that is distinct from the targets of known modulators of ionotropic GABA receptors. In line with this notion, fluralaner and afoxolaner were fully active against the Anopheles gambiae Tiassalé strain that carries the resistance-to-dieldrin (rdl) mutation in the GABA receptor. In addition, they were equipotent against pyrethroid- and carbamate-resistant strains carrying mutations in the kdr sodium channel and acetylcholine esterase (Ace-1) genes respectively. […] The results are shown as percentage of survival (on over 100 mosquitoes for each case), the bold and underlined numbers indicate values that fall within the criteria for resistance.

A further data set deals with Aedes aegypti Cayman. The data set can be described thus: WHO paper contact assay, Aedes aegypti Cayman. The format is in vivo. The settings on record: papers 0.75% permethrin, 0.05% deltamethrin, 4% DDT, 0.1% bendiocarb, 1.0% fenitrothion, 4% dieldrin. Here is the method: as §2, §3
Data set [4] concerns Anopheles gambiae Tiassale 13. The data set is described as follows: WHO paper contact assay, Anopheles gambiae Tiassale. The settings on record: papers 0.75% permethrin, 0.05% deltamethrin, 4% DDT, 0.1% bendiocarb, 1.0% fenitrothion, 4% dieldrin. In kind it is in vivo. On the procedure:
as §2, §3

The subject of data set [5] is Aedes aegypti New Orleans. The data set can be described thus: WHO paper contact assay, Aedes aegypti New Orleans. The settings on record: papers 0.75% permethrin, 0.05% deltamethrin, 4% DDT, 0.1% bendiocarb, 1.0% fenitrothion, 4% dieldrin. The format is in vivo. On the procedure: as §2, §3
The test system of data set [6] is Anopheles gambiae (Tiassalé). The data set can be described thus: Membrane feeding, Anopheles gambiae Tiassalé strain (rdl mutation). In kind it is in vivo. As to conditions: Tiassale strain; membrane feeding. Here is the method:
as §2
Isoxazoline compounds fluralaner or afoxolaner were reconstituted in 50% human serum and 50% red blood cells and administered to adult Anopheles stephensi mosquitos via standard membrane feeding. Lethality was assessed 1, 2 or 8 days after exposure. FIG. 2A represents a plot of viable Anopheles stephensi versus fluralaner concentration at each day of assessment. FIG. 2B represents a plot of viable Anopheles stephensi versus afoxolaner concentration at each day of assessment. […] The IC50 values of each compound for Anopheles death were determined by logistic regression using a least squares method to find the best fit and are shown in Table 1. IC50 values were calculated by applying a four-parameter logistic regression model using a least-squares method to find the best fit using the Graphpad Prism 5.0 software package.
The membrane feeding experiment described was repeated using the insecticide dieldrin on two strains of Anopheles gambiae: Kisumu and Tiassale. The Tiassale strain has a mutation in the resistance to dieldrin (rdl) locus, which codes for γ-aminobutyric acid (GABA) receptor. The Tiassale strain was resistant to pyrethroids, carbamate, DDT and dieldrin (knockdown resistance (kdr), Ace and rdl mutations). The Kisumu strain was susceptible to killing by all tested insecticides. FIG. 3A represents a plot of percentage survival of Kisumu and Tiassale strains of Anopheles gambiae versus dieldrin concentration. FIG. 3B represents a plot of survival of the Kisumu and Tiassale strains at 10 μM dieldrin. […] Both figures indicate that the dose-response in systemic feed experiment performed here in allows for identification of a resistance profile.
The feed experiment in Anopheles gambiae was repeated using the isoxazoline compounds fluralaner and afoxolaner to determine if the rdl mutation confers resistance to the isoxazoline insecticides. Isoxazoline insecticides target Rdl, but in a location thought to be different from dieldrin. The mosquitos were fed fluralaner or afoxolaner at various concentrations and lethality was assessed after 24 hours. FIG. 4A represents a plot of percentage survival of Kisumu and Tiassale strains of Anopheles gambiae versus fluralaner concentration. FIG. 4B represents a plot of percentage survival of Kisumu and Tiassale strains of Anopheles gambiae versus afoxolaner concentration.

The subject of the next data set is malaria transmission. The settings on record: cited from earlier work.

With `CCOc1ccc2ccc(=O)oc2c1` [7-Ethoxycoumarin], the half-life in “in vitro [1]” (rat) worked out at 61.8 min; in “in vitro [2]”, 20.1 min; in the data set “in vitro [3]” (dog), 14 min. Also, the hepatocyte CLint turned out to be 22.4 µL/min/1e6 cells in “in vitro [1]” (rat), 69.1 µL/min/1e6 cells in the data set “in vitro [2]” and 99.3 µL/min/1e6 cells in the data set “in vitro [3]” (dog).

`O=c1ccc2ccc(O)cc2o1` [7-Hydroxycoumarin]: the half-life came to 4.8 min in “in vitro [1]”, 14.7 min in the data set “in vitro [2]” and 20.4 min in “in vitro [3]”. In addition, the hepatocyte CLint was 290 µL/min/1e6 cells in “in vitro [1]”, 94.1 µL/min/1e6 cells in “in vitro [2]” and 68.1 µL/min/1e6 cells in the data set “in vitro [3]”.

On to `CNC(=O)Oc1cccc2c1OC(C)(C)O2` [Bendiocarb], for which the percentage of survival in the data set with Anopheles gambiae Kisumu was 100%; in the data set on Aedes aegypti Cayman, 20%; in data set [4], 11%; in data set [5] it was 27%.

Consider `Clc1ccc(C(c2ccc(Cl)cc2)C(Cl)(Cl)Cl)cc1` [DDT], for which the percentage of survival in the data set on Anopheles gambiae Kisumu came to 100%; in the data set on Aedes aegypti Cayman, 0%; in data set [4] it was 3%; in data set [5] it was 100%.

For `CC1(C)[C@H](C(=O)O[C@H](C#N)c2cccc(Oc3ccccc3)c2)[C@@H]1C=C(Br)Br` [Deltamethrin], the percentage of survival stood at 100% with Anopheles gambiae Kisumu, 36% with Aedes aegypti Cayman, 10% in data set [4] and 100% in data set [5].

In the case of `ClC1=C(Cl)[C@]2(Cl)[C@@H]3[C@@H]4C[C@@H]([C@H]5O[C@@H]45)[C@@H]3[C@@]1(Cl)C2(Cl)Cl` [Dieldrin], the percentage of survival stood at 96% in the data set with Anopheles gambiae Kisumu, 95% in the data set on Aedes aegypti Cayman, 21% in data set [4] and 100% in data set [5]. In addition, the “resistance of strain to killing (in words)” value in [6] is listed as “confers resistance to killing by dieldrin”.

Regarding `COP(=S)(OC)Oc1ccc([N+](=O)[O-])c(C)c1` [Fenitrothion], the percentage of survival is recorded as 100% with Anopheles gambiae Kisumu, 100% with Aedes aegypti Cayman, 96% in data set [4] and 100% in data set [5].

As to `CC1(C)C(C=C(Cl)Cl)C1C(=O)OCc1cccc(Oc2ccccc2)c1` (stereo not shown) [Permethrin], the percentage of survival in the data set on Anopheles gambiae Kisumu amounted to 100%; in the data set on Aedes aegypti Cayman, 7%; in data set [4] it was 3%; in [5] it was 100%.

ivermectin: in the data set on malaria transmission (MDA studies), the “estimated reduction in new malaria cases in children under 5” value is on record as 16% and the “reduction in infectious Anopheles gambiae” value is given as approximately 80%. The “estimated reduction in transmission potential” value with malaria transmission (co-treatment with artemether-lumefantrine, effect short-lived) is reported as 35%.
